Patent US20030229113A1, “Keratinocyte growth inhibitors and hydroxamic acid derivatives” (priority 2003, published 2003)
Like-named read-outs stand apart in the source and are kept apart here.

Tests used:
[1] = test system: solubilizing enzyme of HB-EGF; experiment: Inhibition of TPA-stimulated release of HB-EGF from HT-1080 transfectant expressing HB-EGF/alkaline phosphatase fusion protein; format: cell-based, human; settings: HT-1080 HB-EGF-AP transfectant, TPA 60 nM for 60 min, AP activity in conditioned medium (OD405)
Method: Human fibrosarcoma HT-1080 stable transfectant expressing fusion protein of HB-EGF and human placental alkaline phosphatase (AP) were used for following experiments.
The cultured transfectant was treated with Trypsin-EDTA solution, and suspended in Minimum Essential Medium (without phenol red; supplemented with 10% heat-inactivated fetal calf serum; MEM) at the concentration of 1×10^5 cells/ml. Each 0.2 ml of the cell suspension was dispensed into individual wells of 96 well microplate, and incubated overnight in the CO2 incubator (37° C.). After the incubation, the conditioned medium was removed, and the wells were washed once with 0.2 ml of phosphate buffered saline. The cells were treated with 0.1 ml of compound solution [compound solutions in dimethylsulfoxide (DMSO) were diluted 100 times with MEM] for 30 min at 37° C. Then the compound solutions were removed, and cells were treated with 0.2 ml of TPA solution (120 μM) of stock solution was diluted to 60 nM with MEM) containing same concentration of the compound for 60 min at 37° C. The cells treated same procedure without compound were used as control.
After these treatments, each 0.1 ml of conditioned medium was transferred to individual wells of new 96 well microplate and incubated at 65° C. for 10 min to inactivate endogenous alkaline phosphatase. One hundred microliter of substrate solution (1 mg/ml of p-nitrophenyl phosphate in 0.01% magnesium chloride/1 M diethanolamine) for AP was added to each well and incubated for 120 min at room temperature in the dark. The OD405 of each well was measured with microplate reader. The IC50 values of the compounds were calculated from the concentration-inhibition curves.

[2] = test system: epidermal hyperplasia induced by TPA; experiment: TPA-induced epidermal hyperplasia on dorsal skin of mice; format: in vivo, male BALB/c mice; settings: ED50; topical in acetone at 1 minute, 24 and 48 hours after TPA; epidermal thickness 72 hours after TPA
Method: After backs of male BALB/c mice were shaved, 20 micro 1 of TPA-acetone solution (50 μM) was applied to the dorsal skin surface in an area of ca. 1 cm^2. A volume of 20 micro 1 of test compound-acetone solution was applied to the same area a minute, 24 hours and 48 hours after TPA application (the treated group). In the non-treated group, acetone was applied instead of the test compound. In the control group, acetone was applied instead of TPA and the test compound. The mice were sacrificed, and the skin tissues treated with TPA or the test compound were excised 72 hours after TPA application. Then the tissues were fixed with 10% formalin and embedded in paraffin according to the conventional method. The vertical sections including the center of the TPA- or the test compound-treated area were prepared and they were stained by hematoxylin-eosin. The epidermal thickness was measured using an ocular microscope. The amount of the test compound required for achieving 50% inhibition against the mean epidermal thickness of the non-treated group (ED50) was calculated, wherein the mean epidermal thickness of the non-treated group was 100% and that of the control group was 0%.

[3] = test system: re-epithelialization of skin wound; experiment: Re-epithelialization in mouse skin wound model; format: in vivo, male BALB/c mice; settings: 50% inhibition of re-epithelialization; applied to 6-mm wound once a day
Method: Wound healing model was prepared according to the method described by Tsuboi, et al. [J. Dermatol., 19, 673-675 (1992)]. Briefly, after backs of male BALB/c mice were shaved, two full-thickness round wounds were prepared in parallel to anterior-posterior axis on the back of each mouse using a punch biopsy instrument (6-mm diameter). After the operation, a test compound dissolved or suspended in 0.1M phosphate-buffered saline containing 1.5% sodium carboxymethylcellulose (vehicle) was applied to each wound in a volume of 50 μl/wound. The wounds were left open. From the following day, the compound was applied to each wound once a day for 7 days (the treated group). In the control group, vehicle solution only was applied in the same manner. One day after the last application, mice were sacrificed and skin tissues around the anterior wound were excised. The tissues were fixed with 10% formalin and embedded in paraffin according to the conventional method. The sections were made perpendicularly to the anterior-posterior axis. Keratinocytes in the specimen were stained with an anti-keratin antibody. Measurements of wound size and epidermal migration were performed by using an image-analyzing software. Re-epithelialization was calculated as follows; [formula]
The amount of the test compound required for achieving 50% inhibition against the mean re-epithelialization of the control group (ED50) was calculated.

| IC50 ([1]; read-out: IC50) [nM] | SMILES | Amount of test compound required for 50% suppression of epidermal hyperplasia [2] | ED50 [3] | IC50 [1] [nM] |
| --- | --- | --- | --- | --- |
| 310 | CCOc1ccc(S(=O)(=O)N2Cc3nccnc3CC2C(=O)NO)cc1 (single isomer, unassigned; (+)) [the compound(15), (+)-N-Hydroxy-6-(4-ethoxybenzenesulfonyl)-5,6,7,8-tetrahydropyrido[3,4-b]pyrazine-7-carboxamide] | 370 10^−6 g/cm^2 | 5.2 10^−6 g/0.3 cm^2 | – |
| 360 | COCCOc1ccc(S(=O)(=O)N2Cc3nccnc3CC2C(=O)NO)cc1 (single isomer, unassigned; (+)) [the compound(19), (+)-N-Hydroxy-6-[4-(2-methoxyethoxy)benzenesulfonyl]-5,6,7,8-tetrahydropyrido[3,4-b]pyrazine-7-carboxamide] | 200 10^−6 g/cm^2 | 16.6 10^−6 g/0.3 cm^2 | – |
| 1000 | CCCOc1ccc(S(=O)(=O)N2Cc3nccnc3CC2C(=O)NO)cc1 (single isomer, unassigned; (+)) [the compound(16), (+)-N-Hydroxy-6-(4-propoxybenzenesulfonyl)-5,6,7,8-tetrahydropyrido[3,4-b]pyrazine-7-carboxamide] | – | 11.6 10^−6 g/0.3 cm^2 | – |
| 350 | COc1ccc(S(=O)(=O)N2Cc3nccnc3CC2C(=O)NO)cc1 (single isomer, unassigned; (+)) [the compound(13), (+)-N-Hydroxy-6-(4-methoxybenzenesulfonyl)-5,6,7,8-tetrahydropyrido[3,4-b]pyrazine-7-carboxamide] | 350 10^−6 g/cm^2 | 4.5 10^−6 g/0.3 cm^2 | – |
| 330 | O=C(NO)C1Cc2nccnc2CN1S(=O)(=O)c1ccc(OC(F)(F)F)cc1 (single isomer, unassigned; (+)) [the compound(17), (+)-N-Hydroxy-6-(4-trifluoromethoxybenzenesulfonyl)-5,6,7,8-tetrahydropyrido[3,4-b]pyrazine-7-carboxamide] | 48 10^−6 g/cm^2 | – | – |

Second part, the molecule before the results:

| SMILES | IC50 ([1]; read-out: IC50) [nM] | Amount of test compound required for 50% suppression of epidermal hyperplasia [2] | ED50 [3] | IC50 [1] [nM] |
| --- | --- | --- | --- | --- |
| CSCCCOc1ccc(S(=O)(=O)N2Cc3nccnc3CC2C(=O)NO)cc1 (single isomer, unassigned; (+)) [the compound(21), (+)-N-Hydroxy-6-[4-(3-methylthiopropoxy)benzenesulfonyl]-5,6,7,8-tetrahydropyrido[3,4-b]pyrazine-7-carboxamide] | – | 230 10^−6 g/cm^2 | 11.0 10^−6 g/0.3 cm^2 | 100 |
| COCCCOc1ccc(S(=O)(=O)N2Cc3nccnc3CC2C(=O)NO)cc1 (single isomer, unassigned; (+)) [the compound(14), (+)-N-Hydroxy-6-[4-(3-methoxypropoxy)benzenesulfonyl]-5,6,7,8-tetrahydropyrido[3,4-b]pyrazine-7-carboxamide] | 53 | 300 10^−6 g/cm^2 | 9.8 10^−6 g/0.3 cm^2 | – |
| O=C(NO)C1Cc2nccnc2CN1S(=O)(=O)c1ccc(Oc2ccccc2)cc1 (single isomer, unassigned; (+)) [the compound(20), (+)-N-Hydroxy-6-(4-phenoxybenzenesulfonyl)-5,6,7,8-tetrahydropyrido[3,4-b]pyrazine-7-carboxamide] | 410 | 27 10^−6 g/cm^2 | 9.7 10^−6 g/0.3 cm^2 | – |
| O=C(NO)C1Cc2nccnc2CN1S(=O)(=O)c1ccccc1 (single isomer, unassigned; (+)) [the compound(36), (+)-N-Hydroxy-6-benzenesulfonyl-5,6,7,8-tetrahydropyrido[3,4-b]pyrazine-7-carboxamide] | 510 | 130 10^−6 g/cm^2 | – | – |
| CNC(=O)[C@@H](NC(=O)[C@H](CC(C)C)C(CN1CCc2ccccc2C1)C(=O)NO)c1ccccc1 (stereo partly drawn) [the compound c, [4-(N-hydroxyamino)-2 (R)-isobutyl-3-(1,2,3,4-tetrahydro-isoquinolylmethyl)succinyl]-L-phenylglycine —N-methylamide, reference compound] | 54 | 190 10^−6 g/cm^2 | – | – |
